The values below come from patent US20260076988A1 (The Cleveland Clinic Foundation, priority 2019, published 2026).

In assay [1] the test system is dCTP, dTTP and pyrimidine metabolism enzymes. Briefly: AML cells: nucleotide levels (LCMS/MS) and enzyme expression (QRT-PCR, Western blot). The class given is cell-based. Here is the method:
(§1) A) Experiment schema. Vehicle, natural deoxycytidine (dC) 0.5 uM, natural cytidine (C) 5 uM, Dec 0.5 uM, or 5Aza 5 uM were added once to AML cells at 0 hours. B) Cell counts. By automated counter. Means±SD for 3 independent biological replicates for each cell line. C) Dec and 5Aza have opposite effects on dCTP levels. Measured by LCMS/MS 24 hrs after addition of Dec or 5Aza. Analyses of 2 or more independent nucleotide extractions from 3 different AML cells lines. Means±SD; p-values paired t-test, 1-sided. D) Gene expression 72 hours after Dec or 5Aza. Gene expression by QRT-PCR, relative to average expression in vehicle-treated controls. Means±SD for 3 independent biological replicates in each of 3 AML cell lines; p-values unpaired t-test vs vehicle, 2-sided. E) Western blot 72 hours after Dec or 5Aza. AML cells THP1, OCI-AML3 and K562. Western blots were reproduced in three independent biological replicates.
C) Off-target pathways of Dec and 5Aza. D) Effects of Dec and 5Aza on RRM2A, RRM2B and CTPS1 protein levels. Western blots 72 hours after addition of a single dose of Dec 0.25 μM or 5Aza 2.5 uM. Western blots were reproduced in biological replicates.

Assay [2] concerns AML cells (MOLM13, OCI-AML3, THP1). Briefly: AML cell proliferation after a single dose. The class given is cell-based. The note with it: decitabine, deoxycytidine 0.5 μM, 5-azacytidine, cytidine 5 μM. Here is the method: as §1

With `Nc1ncn([C@@H]2O[C@H](CO)[C@@H](O)[C@H]2O)c(=O)n1` [5-azacytidine], in assay [1], the DNMT1 protein entry was “depleted DNMT1”, the RRM1 protein result is listed as “decreased levels of the ribonucleotide reductase sub-unit RRM1” and the TYMS protein entry is listed as “downregulated”. In assay [1] (24 hour time-point), the dCTP amount result was “significantly decreased” and the dTTP amount result is reported as “decreased by both pro-drugs, but not to statistical significance”. In assay [1] (72 hour time-point), the “CDA mRNA and protein expression” value is reported as “significantly increased”; the “DCK mRNA and protein expression” value is listed as “significantly increased”; the “phosphorylation of CAD at serine 1856” value is “decrease phosphorylation of CAD at serine 1856”; the “total CAD or CTPS1 levels” value is on record as “Neither pro-drug changed total CAD”. Besides, the AML cell proliferation entry in assay [2] is listed as “significantly decreased AML cell proliferation”.
